Patent US11844776B2, “Composition for treatment and/or prevention of peripheral nerve disorder” (OSAKA CITY UNIVERSITY, priority 2016, dated 2023)

Target: m-calpain (derived from porcine kidney) (Sus scrofa, UniProt P43367)
Test: Measurement of inhibitory activity against m-calpain
Assay type: biochemical
Details: casein substrate, pH 7.4, 30° C. for 60 minutes; read-out: Enzyme inhibitory activity m-Calpain (IC50)
Experimental: More specifically, 200 μL of a reaction solution containing 0.5 mg/mL casein, 50 mM Tris-HCl buffer (pH 7.4), 20 mM dithiothreitol and 1.0 nmol μ-calpain (derived from human red blood cells, Cosmo Bio Co., Ltd.) or m-calpain (derived from porcine kidney, Cosmo Bio Co., Ltd.) was added to individual 2.5 μL portions of DMSO solution containing a varying concentration of a test sample in a 96-well plate. Then, 50 μL of 20 mM aqueous calcium chloride was added thereto, and reaction was performed at 30° C. for 60 minutes. 100 μL of the reaction solution was transferred to another 96-well plate, and purified water (50 μL) and 50% aqueous solution (100 μL) of Protein Assay Dye Reagent (available from Bio-Rad Laboratories, Inc.; catalogue No. 500-600) were added thereto. […] The absorbance of a reaction mixture prepared in the same manner as mentioned above, except that a DMSO solution containing no sample was used as a control value; and the absorbance of a reaction mixture prepared in the same manner as mentioned above, except that a 1 mM aqueous EDTA solution (50 μL) was used in place of 20 mM aqueous calcium chloride, was used as a blank value.

m-calpain (derived from porcine kidney), sequence (P43367 whole entry): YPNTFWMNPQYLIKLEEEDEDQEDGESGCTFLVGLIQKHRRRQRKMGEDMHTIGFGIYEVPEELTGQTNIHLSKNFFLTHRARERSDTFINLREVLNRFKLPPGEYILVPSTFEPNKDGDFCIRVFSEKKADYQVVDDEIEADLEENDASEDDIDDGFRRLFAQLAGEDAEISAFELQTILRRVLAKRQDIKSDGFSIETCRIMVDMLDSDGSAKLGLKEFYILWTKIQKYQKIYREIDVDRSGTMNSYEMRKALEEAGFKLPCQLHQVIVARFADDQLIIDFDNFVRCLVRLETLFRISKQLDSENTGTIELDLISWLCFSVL
m-calpain (derived from porcine kidney), sequence (P04574 whole entry, further chain): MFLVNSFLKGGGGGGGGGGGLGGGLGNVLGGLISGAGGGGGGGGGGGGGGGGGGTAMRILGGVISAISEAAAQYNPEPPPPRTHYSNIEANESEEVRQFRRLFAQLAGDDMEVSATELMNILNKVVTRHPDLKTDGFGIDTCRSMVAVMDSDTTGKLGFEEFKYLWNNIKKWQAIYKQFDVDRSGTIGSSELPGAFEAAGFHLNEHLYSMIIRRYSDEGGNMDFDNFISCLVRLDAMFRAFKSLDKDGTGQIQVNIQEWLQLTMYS

Point of comparison: COCCOCCOCCOCCOCCOC(=O)N[C@@H](CC(C)C)C(=O)N[C@@H](Cc1ccccc1)C(=O)C(=O)NC1CC1 [Compound 20, ((1S)-1-((((1S)-1-Benzyl-2,3-dioxo-3-(cyclopropylamino)propyl)amino)carbonyl)-3-methylbutyl)carbamic acid 14-methoxy-3,6,9,12-tetraoxatetradecanyl ester], IC50 190 nM. Against it:
- COCCOCCOCCOCCOC(=O)N[C@@H](CC(C)C)C(=O)N[C@@H](Cc1ccccc1)C(=O)C(=O)NC1CC1 [Compound 19, ((1S)-1-((((1S)-1-Benzyl-2,3-dioxo-3-(cyclopropylamino)propyl)amino)carbonyl)-3-methylbutyl)carbamic acid 11-methoxy-3,6,9-trioxaundecanyl ester] — within 1.5-fold, 170 nM

Tested on: not given
Test: not given
Details: not given

First: COCCNC(=O)C(=O)[C@H](Cc1ccccc1)NC(=O)[C@H](CC(C)C)NC(=O)OCCOC [Compound 12, ((1S)-1-((((1S)-1-Benzyl-2,3-dioxo-3-(2-methoxyethylamino)propyl)amino)carbonyl)-3-methylbutyl) carbamic acid 2-methoxyethyl ester]
Second: CCCNC(=O)C(=O)[C@H](Cc1ccccc1)NC(=O)[C@H](CC(C)C)NC(=O)OCCOC [Compound 7, ((1S)-1-((((1S)-1-Benzyl-2,3-dioxo-3-(propylamino)propyl)amino)carbonyl)-3-methylbutyl) carbamic acid 2-methoxyethyl ester]
The melting point of the first is higher: 127 to 127.9 °C for the first, 108.8 to 109.9 °C for the second.

First: COCCOC(=O)N[C@@H](CC(C)C)C(=O)N[C@@H](Cc1ccccc1)C(=O)C(=O)NCC(F)(F)F [Compound 10, ((1S)-1-((((1S)-1-Benzyl-2,3-dioxo-3-(2,2,2-trifluoroethylamino)propyl)amino)carbonyl)-3-methylbutyl) carbamic acid 2-methoxyethyl ester]
Second: CCNC(=O)C(=O)[C@H](Cc1ccccc1)NC(=O)[C@H](CC(C)C)NC(=O)OCCOC [Compound 1, ((1S)-1-((((1S)-1-Benzyl-2,3-dioxo-3-(ethylamino)propyl)amino)carbonyl)-3-methylbutyl) carbamic acid 2-methoxyethyl ester]
The melting point of the first is higher: 152.5 to 153.9 °C for the first, 138 to 138.3 °C for the second.

First: COCCOC(=O)N[C@@H](CC(C)C)C(=O)N[C@@H](CC(C)C)C(=O)C(=O)NCCOc1ccccc1 [Compound 21, ((1S)-1-((((1S)-2,3-Dioxo-1-(2-methylpropyl)-3-(2-phenoxyethyl)aminopropyl)amino)carbonyl)-3-methylbutyl) carbamic acid 2-methoxyethyl ester]
Second: COCCOCCOC(=O)N[C@@H](CC(C)C)C(=O)N[C@@H](CC(C)C)C(=O)C(=O)NCCOc1ccccc1 [Compound 22, ((1S)-1-((((1S)-2,3-Dioxo-1-(2-methylpropyl)-3-(2-phenoxyethyl)aminopropyl)amino)carbonyl)-3-methylbutyl) carbamic acid 5-methoxy-3-oxapentyl ester]
The melting point of the first is higher: 99.7 to 100.5 °C for the first, 53.3 to 54.1 °C for the second.

First: CCCCNC(=O)C(=O)[C@H](Cc1ccccc1)NC(=O)[C@H](CC(C)C)NC(=O)OCCOC [Compound 9, ((1S)-1-((((1S)-1-Benzyl-3-butylamino-2,3-dioxopropyl)amino)carbonyl)-3-methylbutyl) carbamic acid 2-methoxyethyl ester]
Second: CCNC(=O)C(=O)[C@H](CCc1ccccc1)NC(=O)[C@H](CC(C)C)NC(=O)OCCOC [Compound 13, ((1S)-1-((((1S)-2,3-Dioxo-3-ethylamino-1-(phenylethyl)propyl)amino)carbonyl)-3-methylbutyl)carbamic acid 2-methoxyethyl ester]
The melting point of the first is lower: 94 to 95.2 °C for the first, 119.1 to 120.4 °C for the second.

Compared with COCCOC(=O)N[C@@H](CC(C)C)C(=O)N[C@@H](CCc1ccccc1)C(=O)C(=O)NC1CC1 [Compound 15, ((1S)-1-((((1S)-2,3-Dioxo-3-cyclopropylamino-1-(phenylethyl)propyl)amino)carbonyl)-3-methylbutyl)carbamic acid 2-methoxyethyl ester], COCCOC(=O)N[C@@H](CC(C)C)C(=O)N[C@@H](Cc1ccccc1)C(=O)C(=O)NC1CC1 [Compound 4, ((1S)-1-((((1S)-1-Benzyl-2,3-dioxo-3-(cyclopropylamino)propyl)amino)carbonyl)-3-methylbutyl)carbamic acid 2-methoxyethyl ester] is higher in melting point: 109.7 to 111.1 °C for the first, 112.4 to 113.5 °C for the second.

Compared with CCNC(=O)C(=O)[C@H](Cc1ccccc1)NC(=O)[C@H](CC(C)C)NC(=O)OC1CCOCC1 [Compound 3, ((1S)-1-((((1S)-1-Benzyl-2,3-dioxo-3-(ethylamino)propyl)amino)carbonyl)-3-methylbutyl)carbamic acid tetrahydro-4H-pyran-4-yl ester], CCNC(=O)C(=O)[C@H](Cc1ccccc1)NC(=O)[C@H](CC(C)C)NC(=O)O[C@H]1CCOC1 [Compound 2, ((1S)-1-((((1S)-1-Benzyl-2,3-dioxo-3-(ethylamino)propyl)amino)carbonyl)-3-methylbutyl)carbamic acid (3S)-tetrahydrofuran-3-yl ester] is higher in melting point: 140 to 141.8 °C for the first, 158.9 to 160.7 °C for the second.

Compared with CC(C)C[C@H](NC(=O)O[C@H]1CCOC1)C(=O)N[C@@H](CCc1ccccc1)C(=O)C(=O)NC1CC1 [Compound 16], CC(C)C[C@H](NC(=O)O[C@H]1CCOC1)C(=O)N[C@@H](Cc1ccccc1)C(=O)C(=O)NC1CC1 [Compound 5, ((1S)-1-((((1S)-1-Benzyl-3-(cyclopropylamino)-2,3-dioxopropyl)amino)carbonyl)-3-methylbutyl)carbamic acid (3S)-tetrahydrofuran-3-yl ester] is higher in melting point: 115.8 to 116.2 °C for the first, 169.2 to 170.5 °C for the second.

First: CCNC(=O)C(=O)[C@H](CCc1ccccc1)NC(=O)[C@H](CC(C)C)NC(=O)O[C@H]1CCOC1 [Compound 14, ((1S)-1-((((1S)-2,3-Dioxo-3-ethylamino-1-(phenylethyl)propyl)amino)carbonyl)-3-methylbutyl)carbamic acid (3S)-tetrahydrofuran-3-yl ester]
Second: CC(C)C[C@H](NC(=O)OC1CCOCC1)C(=O)N[C@@H](Cc1ccccc1)C(=O)C(=O)NC1CC1 [Compound 6, ((1S)-1-((((1S)-1-Benzyl-3-cyclopropylamino-2,3-dioxopropyl)amino)carbonyl)-3-methylbutyl)carbamic acid tetrahydro-4H-pyran-4-yl ester]
The melting point of the first is lower: 111.9 to 114.5 °C for the first, 137 to 138.2 °C for the second.

Compared with COCCOC(=O)N[C@@H](CC(C)C)C(=O)N[C@@H](Cc1ccccc1)C(=O)C(=O)NC1CCC1 [Compound 8, ((1S)-1-((((1S)-1-Benzyl-2,3-dioxo-3-(cyclobutylamino)propyl)amino)carbonyl)-3-methylbutyl) carbamic acid 2-methoxyethyl ester], COCCOC(=O)N[C@@H](CC(C)C)C(=O)N[C@@H](Cc1ccccc1)C(=O)C(=O)NC1Cc2ccccc2C1 [Compound 11, ((1S)-1-((((1S)-1-Benzyl-2,3-dioxo-3-(2-indanylamino)propyl)amino)carbonyl)-3-methylbutyl)carbamic acid 2-methoxyethyl ester] is higher in melting point: 114.2 to 115.3 °C for the first, 141.9 to 143.5 °C for the second.

First: COCCOCCOCCOCCOCCOC(=O)N[C@@H](CC(C)C)C(=O)N[C@@H](Cc1ccccc1)C(=O)C(=O)NC1CC1 [Compound 20, ((1S)-1-((((1S)-1-Benzyl-2,3-dioxo-3-(cyclopropylamino)propyl)amino)carbonyl)-3-methylbutyl)carbamic acid 14-methoxy-3,6,9,12-tetraoxatetradecanyl ester]
Second: COCCOCCOCCOCCOC(=O)N[C@@H](CC(C)C)C(=O)N[C@@H](Cc1ccccc1)C(=O)C(=O)NC1CC1 [Compound 19, ((1S)-1-((((1S)-1-Benzyl-2,3-dioxo-3-(cyclopropylamino)propyl)amino)carbonyl)-3-methylbutyl)carbamic acid 11-methoxy-3,6,9-trioxaundecanyl ester]
The melting point of the first is higher: 98.5 to 99.9 °C for the first, 97.5 to 98.5 °C for the second.
